The values that follow are results of earlier work, collected in patent US20110064711A1, “COMPOSITIONS CONTAINING COENZYME Q-10 AND AN ANTIOXIDANT” (priority 2009, published 2011).

For this data set the following is noted: exposure to ambient air; general statement, time not given.

For the molecule `COc1c(O)c(C)c(C/C=C(\C)CC/C=C(\C)CC/C=C(\C)CC/C=C(\C)CC/C=C(\C)CC/C=C(\C)CC/C=C(\C)CC/C=C(\C)CC/C=C(\C)CCC=C(C)C)c(O)c1OC` [Commercial reduced CoQ10 powder], the “reduced form of CoQ10 on a weight basis after exposure to air” value is “below 20%”.
